Consider 9 molecules from BindingDB's records for PubMed 14633714 (Abbott Laboratories, 2003).

Broadly, the IC50 is the concentration that gives 50% inhibition.

In this assay the target is Methionine aminopeptidase 1 (Homo sapiens, UniProt P53582). In words: MetAP Enzyme Activity Assay. The settings on record: pH 7.4; 22 °C. The protocol:
A coupled enzyme chromogenic assay was developed to measure methionine aminopeptidase activity by monitoring the production of free methionine with L-amino acid oxidase and horseradish peroxidase. Assays were performed in 96-well microtiter plates. The reactions were carried out at room temperature, and absorbance at 450 nm (A450) was measured every 20 s over a period of 20 min using an automatic plate reader (Molecular Devices, CA). The rate in mOD/min, calculated for each well, was converted to nM methionine releases per minute per nM MetAP in the reaction.
For `CC(C)CSC[C@@H](N)[C@H](O)C(=O)N[C@@H](C)c1cccc2ccccc12`, the 50% inhibitory concentration (IC50) worked out at 2.2 µM.
`CCOC(=O)[C@H](C)NC(=O)[C@@H](O)[C@H](N)CCSC` [ethyl (2S)-2-[(2S,3R)-3-amino-2-hydroxy-5-(methylsulfanyl)pentanamido]propanoate]: 63 µM corresponded to half-maximal inhibition (IC50).
The figure for `CCSCC[C@@H](N)[C@H](O)C(=O)N[C@@H](C)c1cccc2ccccc12` [bestatin-type inhibitor, 4] is 0.37 µM; for `CCOC(=O)[C@H](C)NC(=O)[C@@H](O)[C@H](N)CSCC(C)C` [ethyl (2S)-2-[(2S,3S)-3-amino-2-hydroxy-4-[(2-methylpropyl)sulfanyl]butanamido]propanoate] it is 66 µM.
The figure for `CCOC(=O)[C@H](C)NC(=O)[C@@H](O)[C@H](N)CCSCC` [ethyl (2S)-2-[(2S,3R)-3-amino-5-(ethylsulfanyl)-2-hydroxypentanamido]propanoate] is 69 µM.
To `CCSCC[C@@H](N)[C@H](O)C(=O)NNC(=O)c1cccc(Cl)c1` [N'-[(2S,3R)-3-amino-5-(ethylsulfanyl)-2-hydroxypentanoyl]-3-chlorobenzohydrazide] belongs 20 µM; to `CC(C)SCC[C@@H](N)[C@H](O)C(=O)NNC(=O)c1cccc(Cl)c1` [N'-[(2S,3R)-3-amino-2-hydroxy-5-(propan-2-ylsulfanyl)pentanoyl]-3-chlorobenzohydrazide], 57 µM; to `CC(C)SCC[C@@H](N)[C@H](O)C(=O)N[C@@H](C)c1cccc2ccccc12`, 12 µM.
Consider `CC(C)CSC[C@@H](N)[C@H](O)C(=O)NNC(=O)c1cccc(Cl)c1`, for which the 50% inhibitory concentration (IC50) is 8.1 µM.
